Drawing on PubChem BioAssay AID2842 (Southern Research Institute, 2010), this text covers IC90 for 51 compounds.

Values after ≈ are worked out from the molar mass of the structure shown.

For the test, the system named is M. tuberculosis H37Rv growth inhibition. The test can be described thus: Mycobacterium tuberculosis H37Rv growth inhibition, putative kinase inhibitor library, confirmatory dose response (AID 2842).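 Further: bacteria incubated one week before Alamar blue readout.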

As to `NC(=O)C1CCN(C2=NC(=O)/C(=C\c3ccc(Cl)cc3Cl)S2)CC1`, the concentration for an effect of 90% (IC90) (commonly the concentration at which the effect reaches the 90% level) was < 0.2 µg/mL.

With `CCOc1ccc(-c2nnc3c4cc5c(cc4n(Cc4ccccc4OC)cc2-3)OCO5)cc1`, the 90% effect concentration (IC90) is 9.22 µg/mL (≈ 20.3 µM).

In the case of `O=C(CCc1ccccc1)Nc1nnc(-c2cc(Cl)ccc2Cl)o1`, the IC90 is 26.6 µg/mL (≈ 73.4 µM).

For `Nc1ncnc(Sc2nc3ccccc3[nH]2)c1[N+](=O)[O-]`, the IC90 was 17.1 µg/mL (≈ 59.2 µM).

As to `O=C(CN1CCOCC1)Nc1ncc(Cc2cc(Cl)cc(Cl)c2)s1`, the IC90 was 14.9 µg/mL (≈ 38.5 µM).

As for `O=C(Nc1nnc(-c2cc(Cl)ccc2Cl)o1)c1ccc(Cl)cc1Cl`, the IC90 was 0.74 µg/mL (≈ 1.84 µM).

In the case of `Cc1cc(C)c2nc(N(CCCn3ccnc3)C(=O)c3cccs3)sc2c1`, the 90% effect concentration (IC90) was 1.45 µg/mL (≈ 3.66 µM).

For `CC(C)(C)/C(O)=C(/C#N)c1nc2ccccc2[nH]1`, the IC90 is 16.6 µg/mL (≈ 68.6 µM).

For the compound `Cc1ccc(C)c(-c2nnc(NC(=O)c3c(F)cccc3F)o2)c1`, the IC90 was 5.74 µg/mL (≈ 17.4 µM).

`Cc1cccc2sc(N(CCCn3ccnc3)C(=O)c3ccco3)nc12`: the IC90 was 0.83 µg/mL (≈ 2.26 µM).

`CC(C)c1ccc(-c2csc(NC(=O)c3ccc4c(c3)OCCO4)n2)cc1`: the IC90 is 3.39 µg/mL (≈ 8.91 µM).

Regarding `O=C(NNc1nc2ccc(Cl)cc2s1)c1cc(-c2cccs2)nc2ccccc12`, the 90% effect concentration (IC90) was 30.9 µg/mL (≈ 70.8 µM).

As to `CCCc1cc(-c2nc(N)ncc2-c2ccc3c(c2)OCO3)c(O)cc1OC`, the IC90 is 17.6 µg/mL (≈ 46.4 µM).

Regarding `COc1ccccc1C(=O)Nc1nnc(-c2ccccc2Cl)o1`, the IC90 was 3.23 µg/mL (≈ 9.8 µM).

Consider `Cc1ccc(-c2nnc(NC(=O)c3ccc(F)cc3)o2)c(C)c1`, for which the IC90 is 26.3 µg/mL (≈ 84.5 µM).

In the case of `C/C(=N\Nc1nc(=O)[nH]nc1C)c1ccccc1O`, the concentration for an effect of 90% (IC90) is < 0.2 µg/mL.

Consider `CC1Cc2cc(-c3nn(-c4ccccc4)cc3/C=C3\SC(=S)NC3=O)ccc2O1` (stereo unspecified), for which the IC90 is 1.79 µg/mL (≈ 4.27 µM).

As for `Cc1ccc(Cn2c(N3CCN(Cc4cccc5ccccc45)CC3)nc3c2c(=O)[nH]c(=O)n3C)cc1`, the IC90 is 25.4 µg/mL (≈ 51.3 µM).

With `Cc1ccc(NCCCn2c(C)c(C)n3c4c(=O)[nH]c(=O)n(C)c4nc23)c(C)c1`, the IC90 was 14.3 µg/mL (≈ 36.2 µM).

For the compound `COC(=O)c1ccc(NC(=O)CSc2nc(-c3ccccc3C)ns2)cc1`, the concentration for an effect of 90% (IC90) is 0.79 µg/mL (≈ 1.98 µM).

Turning to `Cc1ccccc1C(=O)Nc1nnc(-c2cccnc2)o1`, the IC90 was 50.1 µg/mL (≈ 179 µM).

With `Cc1ccc(-c2nnc(NC(=O)c3ccccc3Cl)o2)c(C)c1`, the IC90 was < 0.2 µg/mL.

Consider `OC(CNCc1ccco1)Cn1c2ccc(Cl)cc2c2cc(Cl)ccc21` (stereo unspecified), for which the IC90 was 1.71 µg/mL (≈ 4.39 µM).

For `COc1ccccc1C(=O)Nc1nnc(-c2ccc(F)cc2)o1`, the IC90 is 34.9 µg/mL (≈ 111 µM).

Take `N#Cc1ccc(C(=O)Nc2nnc(-c3ccc(Br)cc3)o2)cc1`: the IC90 was 7.39 µg/mL (≈ 20 µM).

In the case of `COc1ccc(CC2S/C(=N/N=C/c3ccccc3O)NC2=O)cc1` (stereo unspecified), the IC90 was < 0.2 µg/mL.

In the case of `Cc1ccc2c(c1)c1nnc(-c3ccc4c(c3)OCO4)c-1cn2Cc1cccc(F)c1`, the concentration for an effect of 90% (IC90) was 3.39 µg/mL (≈ 8.24 µM).

For the compound `C=CCn1c(=NC(=O)c2ccc([N+](=O)[O-])s2)sc2cc(S(N)(=O)=O)ccc21`, the 90% effect concentration (IC90) was < 0.2 µg/mL.

For `O=C(Nc1nnc(-c2ccco2)o1)c1ccc2c(c1)OCCO2`, the IC90 is 11.6 µg/mL (≈ 37.1 µM).

As for `O=C(CSc1nc(-c2cccc(F)c2)[nH]c1-c1ccccc1)Nc1ccc2c(c1)OCO2`, the IC90 is 5.1 µg/mL (≈ 11.4 µM).

On to `COc1ccccc1Cn1cc2c(-c3ccc(F)cc3)nnc-2c2cc(C)ccc21`, for which the 90% effect concentration (IC90) is 49.2 µg/mL (≈ 124 µM).

In the case of `Cc1ccc(C(=O)Nc2nnc(-c3ccc(C)cc3C)o2)cc1`, the 90% effect concentration (IC90) was 33.5 µg/mL (≈ 109 µM).

For `CCCCC(=O)Nc1nnc(-c2ccc(Br)cc2)o1`, the 90% effect concentration (IC90) is 2.3 µg/mL (≈ 7.09 µM).

On to `Cc1ccc2sc(NNC(=O)c3nc4ccccc4s3)nc2c1C`, for which the IC90 is 3.31 µg/mL (≈ 9.34 µM).

On to `CCC(=O)Nc1nnc(-c2ccc(Cl)s2)o1`, for which the 90% effect concentration (IC90) is 8.62 µg/mL (≈ 33.4 µM).

Turning to `O=C(Nc1nnc(-c2ccc(Cl)cc2)o1)C1CCCCC1`, the concentration for an effect of 90% (IC90) was 5.6 µg/mL (≈ 18.3 µM).

Regarding `COc1ccccc1-c1nnc(NC(=O)c2ccc(-c3ccccc3)cc2)o1`, the 90% effect concentration (IC90) is 1.48 µg/mL (≈ 3.98 µM).

Turning to `Cc1ccccc1NCCCn1c(C)cn2c3c(=O)[nH]c(=O)n(C)c3nc12`, the IC90 was 15.4 µg/mL (≈ 41.9 µM).

`COc1cc(OC)cc(-c2nnc(NC(=O)c3ccc([N+](=O)[O-])o3)o2)c1`: the IC90 is 9.08 µg/mL (≈ 25.2 µM).

With `CC(C)(C)c1ccc(C(=O)Nc2nnc(-c3ccncc3)o2)cc1`, the concentration for an effect of 90% (IC90) is 1.18 µg/mL (≈ 3.66 µM).

For `COc1ccccc1C(=O)Nc1nnc(-c2ccc(Cl)cc2)o1`, the IC90 was 3.86 µg/mL (≈ 11.7 µM).

In the case of `CC(O)CNc1ncnc2c1cnn2-c1ccc(Cl)c(Cl)c1` (stereo unspecified), the IC90 was 12.5 µg/mL (≈ 37 µM).

In the case of `O=[N+]([O-])c1cccc(-c2ccc(/C=N/O)o2)c1`, the IC90 is 11.9 µg/mL (≈ 51.1 µM).

As to `Cc1ccc2c(c1)=C(c1sc(=O)[nH]c1O)C(=O)N=2`, the concentration for an effect of 90% (IC90) was 22.8 µg/mL (≈ 87.7 µM).

Consider `O=C(Nc1nnc(-c2ccc3c(c2)CCCC3)o1)c1ccco1`, for which the IC90 is 0.87 µg/mL (≈ 2.81 µM).

For `O=C(Cc1ccccc1)Nc1nnc(-c2ccc(F)cc2)o1`, the IC90 was 8.35 µg/mL (≈ 28.1 µM).

As for `COc1ccc(-c2nsc(SCC(=O)NCc3ccco3)n2)cc1`, the IC90 is < 0.2 µg/mL.

As to `COC(=O)c1cc(C(=O)OC)cc(-n2c(C)cc(C(=O)CCl)c2C)c1`, the concentration for an effect of 90% (IC90) is 6.39 µg/mL (≈ 17.6 µM).

As to `CC(C)C(=O)Nc1nnc(-c2ccc3c(c2)OCCO3)o1`, the concentration for an effect of 90% (IC90) was 52.3 µg/mL (≈ 181 µM).

Regarding `O=C(Nc1nnc(-c2ccccc2)o1)c1nc2ccccc2s1`, the 90% effect concentration (IC90) is 5.84 µg/mL (≈ 18.1 µM).

On to `COc1cccc2sc(Nc3nc4c(F)cccc4s3)nc12`, for which the concentration for an effect of 90% (IC90) is 14.5 µg/mL (≈ 43.6 µM).
